{"source": "patent US4463001A", "about": "“6-Substituted 6H-dibenzo[b,d]pyran derivatives and process for their preparation” (Farmitalia Carlo Erba S.p.A., priority 1980, dated 1984)", "key": {"[1]": {"assay": "orientative acute toxicity (LD50) in mice", "conditions": "mouse, in vivo, single oral administration, assessed on seventh day", "description": "The toxicity of the compounds of the invention is negligible. Nine hours food deprived mice were treated orally with single administration of increasing doses, then housed and normally fed. The orientative acute toxicity (LD50) was assessed on the seventh day after the treatment and, for example, the following data were obtained: […]"}, "restraint ulcers": {"system": "restraint ulcers", "assay": "inhibition of restraint ulcers in rats (anti-ulcerogenic activity)", "assay_type": "in vivo, rat (Sprague-Dawley male)", "conditions": "po, 4 h; rat, p.o., approximate ED50; read-out: Antiulcerogenic activity ED50 p.o.", "from_the_text": "The compounds of the invention are also useful for reducing the undesirable gastrointestinal side-effects resulting from systemic administration of anti-inflammatory prostaglandin synthetase inhibitors and may be, therefore, used for this purpose in association with them. The anti-ulcerogenic activity of the compounds of the invention is shown, e.g., by the fact that they are active in the test of the inhibition of restraint ulcers in rats, according to the method of Bonfils et al., (Therapie, 1960, 5, 1096; Jap. J. Pharmac. 1945, 43, 5).\nAccording to this method, the tested compounds were administered per os (p.o.) one hour before the immobilization. Six Sprague-Dawley male rats (100-120 g) fasted 24 hours were used for the experiment: a square flexible small-mesh wire netting was used for the immobilization and 4 hours after the immobilization the rats were sacrificed, their stomachs were removed and the lesions counted under a dissecting microscope."}, "gastric secretion": {"system": "gastric secretion", "assay": "inhibition of gastric secretion in pylorus-ligated rats (antisecretory activity, method of Shay)", "assay_type": "in vivo, rat (Sprague-Dawley male)", "conditions": "4 h; rat, intraduodenal, approximate ED50; read-out: Antisecretory activity ED50 i.d.", "description": "According to this method the tested compounds were injected intraduodenally (i.d.) at the time of ligature.\nSix Sprague-Dawley male rats (110-130 g) were used for each group. Twenty-four hours before the test, the rats were deprived of food but the water supply was maintained. On the day of the operation, the pylorus was ligated under light ether anaesthesia. Four hours after the ligature, the rats were sacrificed. The stomach secretion was collected and centrifugated at 3500 r.p.m. for 10 minutes and the volume, less sediment, was determined.\nThe amount of free hydrochloric acid in the gastric juice was determined by titration against 0.01N sodium hydroxide, to an end point of pH 7."}, "[2]": {"system": "syndrome induced by oxotremorine", "assay": "antagonism against syndrome induced by oxotremorine in mice (anti-cholinergic activity)", "assay_type": "in vivo, mice (male)", "conditions": "Mus musculus, po, approximate ED50, read-out: Anticholinergic activity ED50 p.o.", "description": "Considering that many anti-ulcer agents display, as does atropine, a remarkable but undesired anti-cholinergic activity, the compounds of the invention were also assessed for their antagonism against syndrome induced by oxotremorine in mice, according to the method described by Leszkovszky G. P. and Tardos L. (Europ. J. Pharmac. 1971, 15, 310). According to this method 5 male mice, 20-25 g body weight, were used for each group."}, "[3]": {"system": "influenza virus strain APR 8", "assay": "influenza virus experimental infection in mice", "assay_type": "in vivo, CD-1 mice", "conditions": "single dose one or two days after the infection", "description": "(§1) The antiviral activity of the compound of the invention was, for example, evaluated on influenza and herpes simplex viruses experimental infections in mice.\n(§2) Groups of CD-1 mice were infected intranasally with the strain APR 8 of influenza virus and other groups were infected intraperitoneally with the strain 1RC of herpes simplex virus. The tested compounds were administered through various routes, e.g. intraperitoneally, subcutaneously, orally.\n(§3) The effect of the tested compounds, against the influenza virus, was evaluated on the basis of the number of lung lesions and, against the herpes infection, the parameter considered was the protection from mortality since, as is known, herpes simplex infection is lethal in mice."}, "[4]": {"system": "antibody response against sheep red blood cells (SRBC)", "assay": "antibody response induced in mice by suboptimal dose of sheep red blood cells (immunomodulating activity)", "assay_type": "in vivo, mice (female CD-1)", "conditions": "i.p., 50 and 5 mg/kg two hours before antigen, vs control group, six days later", "description": "Their immunomodulating activity is, for example, proven by their capacity to modify the antibody response induced in mice by a suboptimal dose of sheep red blood cells (SRBC) injected by intraperitoneal route (i.p.).\nGroups of ten female CD-1 mice were injected i.p. with 2×10^6 SRBC as antigen. The tested compounds were administered i.p. at two dosage levels: 50 and 5 mg/kg body weight, two hours before the administration of the antigen. A control group of mice received SRBC and saline instead of the compounds. Six days later the mice were killed and antibody titres against SRBC determined in their sera, according to Williams C. A.: Methods in Immunology and Immunochemistry, C. A. Williams and M. W. Chase, Eds. Academic Press, New York, Vol. II, page 152, 1977."}, "[5]": {"system": "herpes simplex virus strain 1RC", "assay": "herpes simplex virus experimental infection in mice", "assay_type": "in vivo, CD-1 mice", "conditions": "single dose one or two days after the infection", "description": "as §1, §2, §3"}, "[6]": {"assay": "lipid-lowering activity in rats fed standard MS/K Altromin diet (Experiment 2)", "assay_type": "in vivo, rat (Iva-SIV (SPF) male)", "description": "(§4) The activity of the compounds of the invention was evaluated: (1) on groups of Icem:CER (SPF Caw) male rats, fed for six days with hypercholesterolaemic diet according to C. E. Day: Shur P. E., Shultz H. R., Day C. E. (Ed.) Atherosclerosis and drug discovery Plenum Pub. Corp., 217 (1976): Experiment 1; or (2) or groups of Iva-SIV (SPF) male rats fed standard MS/K Altromin® diet: Experiment 2. MS/K Altromin is a trade mark.\n(§5) The tested compounds were suspended in Methocel (methyl-cellulose, a 0.5% solution in water) and administered by stomach tube at the dose of 50 mg/kg for 4 days in both the experiments.\n(§6) Groups of animals were treated with the suspending agent only (control groups).\n(§7) The total serum cholesterol was determined with the method of Allain, Clin. Chem., 1974, 20, 470.\nThe serum triglycerides were determined with the method of Mendez, J. Clin. Chem., 1975, 21, 768.\n(§8) The total serum HDL cholesterol was determined according to Demacker P. N. H., Clin. Chem., 1977, 23, 1238.\n(§9) The total β-lipoprotein cholesterol was determined by difference between total serum cholesterol and HDL cholesterol. Statistical analysis in experiment 1 and 2 was performed by the Student's t test for independent samples or by the Cochran's test when the variances were not homogeneous at the F ratio test [Bliss C. I., Statistics in Biology, Vol. 1, page 213 McGraw Hill Book Company, New York 1967; Cochran W. G., Cox C. H., Experimental designs-J. Willey and Sons Inc., New York, II Ed. (1968), page 100]."}, "[7]": {"assay": "lipid-lowering activity in rats fed hypercholesterolaemic diet (Experiment 1)", "assay_type": "in vivo, rat (Icem:CER (SPF Caw) male)", "description": "as §4, §5, §6, §7, §8, §9"}, "[8]": {"conditions": "Experiment 2, 50 mg/kg/os, vs control"}}, "data": [{"compound": "N#CC1Oc2ccccc2-c2ccccc21", "note": "(centres unmarked) [FCE 20493, 6H,6-cyano-dibenzo[b,d]pyran]", "values": [{"measurement": "LD50 at 168 h", "setting": "[1]", "result": "400 to 800", "unit": "mg/kg"}]}, {"compound": "N#CC1(CO)Oc2ccccc2-c2ccccc21", "note": "(centres unmarked) [FCE 20518, 6H,6-cyano-6-hydroxymethyl-dibenzo[b,d]pyran]", "values": [{"measurement": "LD50 at 168 h", "setting": "[1]", "result": "> 800", "unit": "mg/kg"}]}, {"compound": "CC1(C#N)Oc2ccccc2-c2ccccc21", "note": "(centres unmarked) [FCE 20519, 6H,6-cyano-6-methyl-dibenzo[b,d]pyran]", "values": [{"measurement": "LD50 at 168 h", "setting": "[1]", "result": "> 800", "unit": "mg/kg"}]}, {"compound": "CCOC(=O)C1Oc2ccccc2-c2ccccc21", "note": "(centres unmarked) [FCE 20521, 6H,6-ethoxycarbonyl-dibenzo[b,d]pyran]", "values": [{"measurement": "LD50 at 168 h", "setting": "[1]", "result": "> 800", "unit": "mg/kg"}]}, {"compound": "NCC1Oc2ccccc2-c2ccccc21", "note": "(centres unmarked) [FCE 20524, 6H,6-aminomethyl-dibenzo[b,d]pyran]", "values": [{"measurement": "LD50 at 168 h", "setting": "[1]", "result": "400 to 800", "unit": "mg/kg"}, {"measurement": "ED50", "setting": "restraint ulcers", "result": 4.8, "unit": "mg/kg"}, {"measurement": "ED50", "setting": "gastric secretion", "result": 6, "unit": "mg/kg"}, {"measurement": "ED50", "setting": "[2]", "result": "> 100", "unit": "mg/kg"}]}, {"compound": "O=C(O)C1(CO)Oc2ccccc2-c2ccccc21", "note": "(centres unmarked) [FCE 20561, 6H,6-carboxy-6-hydroxymethyl-dibenzo[b,d]pyran]", "values": [{"measurement": "LD50 at 168 h", "setting": "[1]", "result": "> 800", "unit": "mg/kg"}]}, {"compound": "CC1(C(=O)O)Oc2ccccc2-c2ccccc21", "note": "(centres unmarked) [FCE 20562, 6H,6-carboxy-6-methyl-dibenzo[b,d]pyran]", "values": [{"measurement": "LD50 at 168 h", "setting": "[1]", "result": "400 to 800", "unit": "mg/kg"}]}, {"compound": "c1ccc2c(c1)OC(N1CCNCC1)c1ccccc1-2", "note": "(centres unmarked) [FCE 20618, 6H,6-(1-piperazinyl)-dibenzo[b,d]pyran]", "values": [{"measurement": "LD50 at 168 h", "setting": "[1]", "result": "400 to 800", "unit": "mg/kg"}, {"measurement": "ED50", "setting": "restraint ulcers", "result": 7, "unit": "mg/kg"}, {"measurement": "ED50", "setting": "gastric secretion", "result": 1.5, "unit": "mg/kg"}, {"measurement": "ED50", "setting": "[2]", "result": "> 100", "unit": "mg/kg"}]}, {"compound": "CN(C)CCOC(=O)C1Oc2ccccc2-c2ccccc21", "note": "(centres unmarked) [FCE 20696, 6H,6-(2-dimethylaminoethoxycarbonyl)-dibenzo[b,d]pyran]", "values": [{"measurement": "number of lung lesions", "setting": "[3]", "result": "reducing substantially the number of lung lesions"}, {"measurement": "LD50 at 168 h", "setting": "[1]", "result": "400 to 800", "unit": "mg/kg"}, {"measurement": "antibody titres against SRBC", "setting": "[4]", "result": "increased the antibody titers several fold as compared to control group"}, {"measurement": "protection from mortality (animals protected from death)", "setting": "[5]", "result": "up to 45%"}]}, {"compound": "CC1(C(=O)O)Oc2ccc(Cl)cc2-c2ccccc21", "note": "(centres unmarked) [FCE 20770, 6H,6-carboxy-6-methyl-2-chloro-dibenzo[b,d]pyran]", "values": [{"measurement": "LD50 at 168 h", "setting": "[1]", "result": "400 to 800", "unit": "mg/kg"}]}, {"compound": "O=C(O)CC1Oc2ccccc2-c2ccccc21", "note": "(centres unmarked) [FCE 20881, 6H,6-carboxymethyl-dibenzo[b,d]pyran]", "values": [{"measurement": "β-lipoprotein cholesterol, mean ± S.E.", "setting": "[6]; Experiment 2, 50 mg/kg/os for 4 days, standard diet, control 27.1 ± 1.1", "result": "20.5 ± 0.8", "unit": "mg/100 ml"}, {"measurement": "Total serum cholesterol, mean ± S.E.", "setting": "[6]; Experiment 2, 50 mg/kg/os for 4 days, standard diet, control 66.3 ± 1.7", "result": "57.7 ± 1.5", "unit": "mg/100 ml"}, {"measurement": "Serum triglycerides (printed \"trygylcerides\"), mean ± S.E.", "setting": "[6]; Experiment 2, 50 mg/kg/os for 4 days, standard diet, control 228.7 ± 18.9", "result": "168.3 ± 13.4", "unit": "mg/100 ml"}, {"measurement": "Serum triglycerides, Student's t test result", "setting": "[6]; [8]", "result": "S (significant (p <0.05))"}, {"measurement": "Total serum cholesterol, Student's t test result", "setting": "[6]; [8]", "result": "HS (highly significant (p <0.01))"}, {"measurement": "β-lipoprotein cholesterol, Student's t test result", "setting": "[6]; [8]", "result": "HS (highly significant (p <0.01))"}, {"measurement": "effect on total serum cholesterol, β-lipoprotein cholesterol and serum triglycerides", "setting": "[6]; Experiment 2, in words", "result": "decrease the total serum cholesterol, in particular β-lipoprotein cholesterol and serum triglycerides"}, {"measurement": "LD50 at 168 h", "setting": "[1]", "result": "400 to 800", "unit": "mg/kg"}, {"measurement": "Serum HDL total cholesterol, mean ± S.E.", "setting": "[7]; Experiment 1, 50 mg/kg/os for 4 days, hypercholesterolaemic diet, control 13.2 ± 1.8", "result": "23.2 ± 0.5", "unit": "mg/100 ml"}, {"measurement": "Total serum cholesterol, mean ± S.E.", "setting": "[7]; Experiment 1, 50 mg/kg/os for 4 days, hypercholesterolaemic diet, control 459.6 ± 51.7", "result": "240.0 ± 20.7", "unit": "mg/100 ml"}, {"measurement": "effect on total serum cholesterol and total HDL cholesterol", "setting": "[7]; Experiment 1, in words", "result": "decrease the total serum cholesterol and to increase the total HDL cholesterol"}]}, {"compound": "CCN(CC)CCOC(=O)C1Oc2ccccc2-c2ccccc21", "note": "(centres unmarked) [FCE 21849, 6H,6-(2-diethylaminoethoxycarbonyl)-dibenzo[b,d]pyran]", "values": [{"measurement": "LD50 at 168 h", "setting": "[1]", "result": "400 to 800", "unit": "mg/kg"}, {"measurement": "antibody titres against SRBC", "setting": "[4]", "result": "increased the antibody titers several fold as compared to control group"}]}]}
